The text below walks through data of patent publication US9918968B2, “Rapamycin analogs targeting proteasome function in the treatment of cancer” (THE BOARD OF REGENTS OF THE UNIVERSITY OF TEXAS SYSTEM, priority 2013, dated 2018).

Read-outs that look alike come from different tables or passages of the source.

The test system of data set [1] is A2780 ovarian cancer cells. The settings on record: read-out: IC50, proliferation; cited from earlier work.
The next data set concerns LoVo colon cancer. The settings on record: read-out: IC50, proliferation; cited from earlier work.
Data set [2] relates to RPMI8226 multiple myeloma cancer. As to conditions: read-out: IC50, proliferation; cited from earlier work.
Another data set deals with H460. As to conditions: read-out: IC50, proliferation; cited from earlier work.
Data set [3] concerns MM xenograft tumors (LAGκ-1A). The settings on record: 14 d, cited from earlier work.
Another data set deals with PC3 prostate cancer. The settings on record: read-out: IC50, proliferation; cited from earlier work.
Data set [4] concerns the target chymotrypsin-like proteasome activity (Homo sapiens, UniProt P28074). The settings on record: read-out: IC50, chymotrypsin-like proteasome inhibition; cited from earlier work.
The subject of another data set is transplanted tumor. As to conditions: cited from earlier work; for proteasome inhibition in brain tissue: any time point.
Data set [5] concerns HS-Sultan anaplastic non-Hodgkin lymphoma. As to conditions: read-out: IC50, proliferation; cited from earlier work.
The test system of data set [6] is T1, human 20S proteasome, ChT-L peptidase.
T1 construct: purchased Enzo LifeSciences
The experiment in a line: ChT-L peptidase activity of purified human 20S proteasome (Suc-LLVY-MCA). Format: biochemical. How it is done: Human purified proteasome complexes were purchased from Enzo LifeSciences or Boston Biochemicals (19S complex). BODIPY-casein (Invitrogen/Molecular Probes) was used as a model protein substrate, with increasing fluorescence of BODIPY labeled peptide products of degradation monitored for up to 8 hours at 37° C. The peptidase activity of the enzyme was measured as arbitrary intensity units of the released fluorescent group 7-amino-4-methylcoumarin (AMC) from peptide substrates, as described. […] Proteasome substrates, rapamycin, its derivatives, and competing peptides were stocked in DMSO and diluted 100-fold in the reaction mixtures. The Rpt5 and PA200 C-terminal peptides were synthesized in the Departmental Peptide Synthesis Core using the standard SPPS chemistry. To activate the latent 20S proteasome, 0.005% (final concentration) of sodium dodecyl sulfate (SDS) was used. […] The fluorescence of products was monitored every 2 minutes with a Fluoroskan Ascent plate reader. Reaction rates were calculated from smoothed linear segment of kinetic curves using OriginPro 8.6 (OriginLabs, Northampton, Mass.). For the determination of an inhibition type, at least six distinct substrate concentrations and two inhibitor concentrations were used. The kinetic parameters of inhibition were analyzed in terms of the Michaelis-Menten formalism using the enzyme kinetic module of SigmaPlot v.12 (Systat Software, Inc, San Jose, Calif.) to perform the respective calculations. […]
The in vitro assay for testing the ChT-L peptidase activity of the purified human 20S proteasome was performed as described above.

The subject of data set [7] is MDA-MB-231 (triple-negative breast cancer) cells. Nature of the data set: Viability/growth of MDA-MB-231 cells. The settings on record: Homo sapiens, MDA-MB-231; 24 hours, drug alone; read-out: EC50 (concentration required to exclude 50% of cells). Format: cell-based, human. How it is done:
The cells were grown in 24 or 12-well cell culture plates. […] The final concentration of the solvent was 1% (vol/vol). The number of live and dead cells after the treatment was approximated with calcein AM and ethidium homodimer (LiveDead test, Invitrogen) according to manufacturer's protocol, or by a Trypan Blue exclusion assay. In short, the cells after the treatment were washed three times with PBS and overlaid (surface-growing) or mixed (suspension-growing) with 4 microM calcein AM and 2 microM ethidium homodimer in PBS. […] The cell counts were approximated using standard curves of live and digitonin-killed cells prepared for each strain. Alternatively, after cell treatment the medium was removed, the surface growing cells were overlaid with Trypan Blue solution, and the colorless (live) and blue-colored (dead) cells were counted under the inverted microscope.

Data set [8] has as its system HeLa.S3 cervical carcinoma cells. The experiment in a line: Live/dead cell count, HeLa.S3 cells. Format: cell-based, human. As to conditions: 48 hrs. How it is done: (§1) Culture Collection; ATCC) were cultured according to ATCC specifications: HeLa.S3 cervical adenocarcinoma, MCF7 breast adenocarcinoma, MDA-MB-231 breast adenocarcinoma (representing triple negative breast cancer), and RPMI 8226 myeloma. The cells were grown in 24 or 12-well cell culture plates. When the cells reached about 60% confluency (surface-growing HeLa.S3,MCF7 and MDA-MB-231) or a density of about 7×10^5 (suspension-growing RPMI 8226), the inhibitors dissolved in DMSO or the solvent (DMSO) diluted in respective culture medium were added and the cells were further cultured for additional 48 hours. […] The final concentration of the solvent was 1% (vol/vol). The number of live and dead cells after the treatment was approximated with calcein AM and ethidium homodimer (LiveDead test, Invitrogen) according to manufacturer's protocol, or by a Trypan Blue exclusion assay. In short, the cells after the treatment were washed three times with PBS and overlaid (surface-growing) or mixed (suspension-growing) with 4 microM calcein AM and 2 microM ethidium homodimer in PBS. Fluorescence of calcein and DNA-bound ethidium homodimer was measured with Fluoroskan Ascent plate reader, at 485 nm (excitation)/538 nm (emission) and 530 nm/619 nm, respectively. The cell counts were approximated using standard curves of live and digitonin-killed cells prepared for each strain. Alternatively, after cell treatment the medium was removed, the surface growing cells were overlaid with Trypan Blue solution, and the colorless (live) and blue-colored (dead) cells were counted under the inverted microscope.

Another data set relates to RPMI 8226 myeloma cells. Nature of the data set: Live/dead cell count, RPMI 8226 myeloma cells. Format: cell-based, human. The settings on record: 5 nM, 48 hrs. How it is done: as §1
For data set [9], the system named is MCF7 breast carcinoma cells. Nature of the data set: Live/dead cell count, MCF7 cells. Format: cell-based, human. As to conditions: 100 nM bortezomib. How it is done: as §1, with “In short, the cells after the treatment were washed three times with PBS and overlaid (surface-growing) or mixed (suspension-growing) with 4 microM calcein AM and 2 microM ethidium homodimer in PBS.” left out, “The cell counts were approximated using standard curves of live and digitonin-killed cells prepared for each strain.” left out

With `CC(C)C[C@H](NC(=O)[C@@H](NC(=O)c1cccc(-c2ccccc2)n1)[C@@H](C)O)B(O)O` [Delanzomib], the IC50 was 13.7 nM in data set [1]; 11.3 nM with LoVo colon cancer; 5.6 nM in data set [2]; 34.2 nM with H460; 22.2 nM with PC3 prostate cancer; 3.8 nM in data set [4]. For the same compound, the IC50 in [5] is 8.2 nM. For the same compound, the “tumors smaller than control” value in data set [3] (twice weekly 3 mg/kg i.v.) is listed as “approximately 8 times”; in [3] (twice weekly 10 mg/kg orally), around 12 times. Further, the “proteasome inhibition in brain tissue” value in the data set on transplanted tumor is recorded as “No proteasome inhibition is detected”. For the same compound, in the data set with transplanted tumor (caspase-3 and 7 activity in tumor, equiactive doses), the “maximum apoptotic signal versus bortezomib” value is 2.5 fold.
Turning to `CC(C)C[C@H](NC(=O)[C@H](Cc1ccccc1)NC(=O)c1cnccn1)B(O)O` [bortezomib], the “remaining ChT-L activity” value is given as 83% in [6] (5 nM BZ alone) and 68% in [6] (50 nM bortezomib alone). Further, the EC50 in data set [7] was determined as 745 nM. In addition, the “dead cells, of total cell count” value in [8] (up to 100 nM bortezomib) is reported as “up to 16%”. Also, in [8] (up to 100 nM), the “changes in cell proliferation” value was “did not induce significant changes”. Further, in the data set with RPMI 8226 myeloma cells, the dead cells is 18%. The compound further registered a remaining live cells with RPMI 8226 myeloma cells (100% = live cells in DMSO control) of 10%. In addition, the “live cell count, of the control” value in data set [9] is given as “about 53%”. Further, the “proteasome inhibition in brain tissue” value in the data set on transplanted tumor is given as “No proteasome inhibition is detected”. The “incidence of CR (complete tumor regression)” value with transplanted tumor (at MTD of 1.2 mg/kg intravenously) is recorded as 50%. Also, in the data set with transplanted tumor (intravenously), the “maximally tolerated dose (MTD)” value is 1.2 mg/kg.
